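At the GI50, growth is halved. The concentration for full growth arrest is given as TGI.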
Legend:
Test in all cases: NCI-60 cell line screen, 384-well format
[1] = system: A549 NSCLC
[2] = system: OVCAR-4 ovarian
[3] = system: CAKI-1 renal
[4] = system: OVCAR-3 ovarian
[5] = system: SR leukemia
[6] = system: NCI-H322M lung
[7] = system: DU-145 prostate
[8] = system: UACC-62 melanoma
[9] = system: HCT-116 colon
[10] = system: SF-268 CNS
[11] = system: MDA-MB-231 breast
[12] = system: CCRF-CEM leukemia
[13] = system: HS 578T breast
[14] = system: RXF 393 renal
[15] = system: M14 melanoma
[16] = system: SNB-19 CNS
[17] = system: HCT-15 colon
[18] = system: IGROV1 ovarian
[19] = system: MOLT-4 leukemia
[20] = system: NCI-H226 lung
[21] = system: TK-10 renal
[22] = system: MALME-3M melanoma
[23] = system: SK-MEL-28 melanoma
[24] = system: RPMI-8226 leukemia
[25] = system: NCI-H460 NSCLC
[26] = system: NCI-H23 lung
[27] = system: SNB-75 CNS
[28] = system: UACC-257 melanoma
[29] = system: HOP-62 NSCLC
[30] = system: KM12 colon
[31] = system: U251 glioblastoma
[32] = system: SW-620 colon
[33] = system: A498 renal
[34] = system: EKVX NSCLC
[35] = system: SN12C renal
[36] = system: COLO 205 colon
[37] = system: 786-0 renal
[38] = system: BT-549 breast
[39] = system: MCF7 breast
[40] = system: SK-MEL-2 melanoma
[41] = system: NCI/ADR-RES ovarian
[42] = system: HL-60(TB) leukemia
[43] = system: HOP-92 NSCLC
[44] = system: HCC-2998 colon
[45] = system: OVCAR-8 ovarian
[46] = system: SF-539 CNS
[47] = system: MDA-MB-435 melanoma
[48] = system: SK-OV-3 ovarian
[49] = system: LOX IMVI melanoma
[50] = system: UO-31 renal
[51] = system: SK-MEL-5 melanoma
[52] = system: HT29 colon

## C[C@@]1(O)CCC[C@H]1n1c(=O)c(C(F)F)cc2cnc(NC3CCN(S(C)(=O)=O)CC3)nc21
[1]
  GI50: 1.98 µM
  TGI: > 100 µM
[2]
  GI50: 3.04 µM
  TGI: 7.15 µM
[3]
  GI50: 0.784 µM
  TGI: > 100 µM
[4]
  GI50: 1.52 µM
  TGI: 5.57 µM
[5]
  GI50: 0.0344 µM
  TGI: 1.08 µM
[6]
  GI50: 2.07 µM
  TGI: 5.8 µM
[7]
  GI50: 1.63 µM
  TGI: 6.38 µM
[8]
  GI50: 0.951 µM
  TGI: 2.94 µM
[9]
  GI50: 0.198 µM
  TGI: > 100 µM
[10]
  GI50: 1.69 µM
  TGI: 4.04 µM
[11]
  GI50: 2.34 µM
  TGI: > 100 µM
[12]
  GI50: 0.357 µM
  TGI: 1.77 µM
[13]
  GI50: 1.92 µM
  TGI: 4.04 µM
[14]
  GI50: 1.44 µM
  TGI: 2.88 µM
[15]
  GI50: 1.47 µM
  TGI: 5.49 µM
[16]
  GI50: 2.4 µM
  TGI: > 100 µM
[17]
  GI50: 1.79 µM
  TGI: 15.8 µM
[18]
  GI50: 1.62 µM
  TGI: > 100 µM
[19]
  GI50: 0.445 µM
  TGI: 1.93 µM
[20]
  GI50: 1.1 µM
  TGI: > 100 µM
[21]
  GI50: 1.15 µM
  TGI: > 100 µM
[22]
  GI50: 1.44 µM
  TGI: 3.16 µM
[23]
  GI50: 1.21 µM
  TGI: 2.91 µM
[24]
  GI50: 0.029 µM
  TGI: 0.0951 µM
[25]
  GI50: 0.0589 µM
  TGI: 2.18 µM
[26]
  GI50: 1.68 µM
  TGI: 3.3 µM
[27]
  GI50: 1.42 µM
  TGI: 3.02 µM
[28]
  GI50: 1.63 µM
  TGI: 3.97 µM
[29]
  GI50: 1.8 µM
  TGI: 6.59 µM
[30]
  GI50: 1.07 µM
  TGI: 3.92 µM
[31]
  GI50: 2.03 µM
  TGI: 8.8 µM
[32]
  GI50: 0.0944 µM
  TGI: > 100 µM
[33]
  GI50: 1.75 µM
  TGI: > 100 µM
[34]
  GI50: 1.9 µM
  TGI: 5.15 µM
[35]
  GI50: 1.99 µM
  TGI: 4.92 µM
[36]
  GI50: 1.33 µM
  TGI: 4.74 µM
[37]
  GI50: 1.85 µM
  TGI: > 100 µM
[38]
  GI50: 0.866 µM
  TGI: 3.04 µM
[39]
  GI50: 0.128 µM
  TGI: 19.1 µM
[40]
  GI50: 2.25 µM
  TGI: 4.21 µM
[41]
  GI50: 21 µM
  TGI: > 100 µM
[42]
  GI50: 0.0721 µM
  TGI: 1.2 µM
[43]
  GI50: 2.05 µM
  TGI: > 100 µM
[44]
  GI50: 1.38 µM
  TGI: 3.9 µM
[45]
  GI50: 1.54 µM
  TGI: > 100 µM
[46]
  GI50: 1.3 µM
  TGI: 2.89 µM
[47]
  GI50: 1.63 µM
  TGI: 9.28 µM
[48]
  GI50: 3.01 µM
  TGI: > 100 µM
[49]
  GI50: 1.6 µM
  TGI: > 100 µM
[50]
  GI50: 1.01 µM
  TGI: 4.13 µM
[51]
  GI50: 0.0993 µM
  TGI: 2.28 µM
[52]
  GI50: 1.83 µM
  TGI: > 100 µM
